Reference: ChEMBL document CHEMBL1126551, “Three-dimensional quantitative structure-activity relationships of 5-HT receptor binding data for tetrahydropyridinylindole derivatives: a comparison of the Hansch and CoMFA methods” (J Med Chem, 1993)

Molecular target: T1, 5-hydroxytryptamine receptor 1A (Rattus norvegicus, UniProt P19327)
T1 sequence (P19327 whole entry): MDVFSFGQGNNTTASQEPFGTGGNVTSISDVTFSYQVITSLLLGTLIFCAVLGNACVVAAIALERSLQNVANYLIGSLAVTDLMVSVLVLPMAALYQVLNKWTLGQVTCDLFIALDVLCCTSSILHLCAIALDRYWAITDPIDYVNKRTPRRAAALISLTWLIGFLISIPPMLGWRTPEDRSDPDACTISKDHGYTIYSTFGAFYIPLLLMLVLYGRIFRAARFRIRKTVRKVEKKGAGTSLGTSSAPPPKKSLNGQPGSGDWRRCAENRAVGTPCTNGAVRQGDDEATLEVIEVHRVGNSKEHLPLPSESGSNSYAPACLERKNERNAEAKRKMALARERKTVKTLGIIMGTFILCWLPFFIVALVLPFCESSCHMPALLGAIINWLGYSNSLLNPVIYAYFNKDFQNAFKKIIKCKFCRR
Description: Binding affinity towards 5-hydroxytryptamine 1A receptor using [3H]8-OH-DPAT as radioligand.

CN1CC=C(c2c[nH]c3ccc(S(C)(=O)=O)cc23)CC1
Ki: 188 nM

CN1CC=C(c2c[nH]c3ccc(C4OCCO4)cc23)CC1
Ki: 87.9 nM

O=[N+]([O-])c1ccc2[nH]cc(C3=CCNCC3)c2c1
Ki: 64.6 nM

CN1CC=C(c2c[nH]c3ccc(N4C(=O)c5ccccc5C4=O)cc23)CC1
Ki: 377 nM

CN1CC=C(c2c[nH]c3ccc(Cl)cc23)CC1
Ki: 189 nM

COc1ccc2[nH]c(C)c(C3=CCN(C)CC3)c2c1
Ki: 345 nM

CN1CC=C(c2c[nH]c3ccc(-c4ccc(F)cc4)cc23)CC1
Ki: 69 nM

CN1CC=C(c2c[nH]c3ccc(-c4ccccc4)cc23)CC1
Ki: 55 nM

CN1CC=C(c2c[nH]c3ccc(CO)cc23)CC1
Ki: 126 nM

CC(=O)c1ccc2[nH]cc(C3=CCN(C)CC3)c2c1
Ki: 23 nM

CCN1CC=C(c2c[nH]c3ccc(C(=O)OC)cc23)CC1
Ki: 384 nM

C1=C(c2c[nH]c3ccccc23)CCN(Cc2ccccc2)C1
Ki: 923 nM

CN1CC=C(c2cn(Cc3ccccc3)c3ccccc23)CC1
Ki: 10000 nM

CN1CC=C(c2c[nH]c3ccc(OCc4ccccc4)cc23)CC1
Ki: 111 nM

CC(=O)Nc1ccc2[nH]cc(C3=CCN(C)CC3)c2c1
Ki: 77.6 nM

Cc1ccc2[nH]cc(C3=CCN(C)CC3)c2c1
Ki: 146 nM

COc1ccc2[nH]cc(C3CCN(C)CC3)c2c1
Ki: 138 nM

CN1CCC(c2c[nH]c3ccccc23)(c2c[nH]c3ccccc23)CC1
Ki: 550 nM

CCOC(=O)c1ccc2[nH]cc(C3=CCN(C)CC3)c2c1
Ki: 36.1 nM

CN1CC=C(c2c[nH]c3ccc(-c4ccsc4)cc23)CC1
Ki: 25.1 nM

CCCN1CC=C(c2c[nH]c3ccc(C(N)=O)cc23)CC1
Ki: 17 nM

CN1CC=C(c2c[nH]c3ccc(NS(C)(=O)=O)cc23)CC1
Ki: 692 nM

COc1ccc2[nH]cc(C3=CCN(C)CC3)c2c1
Ki: 21.1 nM

CN1CC=C(c2c[nH]c3ccc([N+](=O)[O-])cc23)CC1
Ki: 21.1 nM

CC(O)c1ccc2[nH]cc(C3=CCN(C)CC3)c2c1 (stereo unspecified)
Ki: 221 nM

CN1CC=C(c2c[nH]c3ccccc23)CC1
Ki: 146 nM

COC(=O)c1ccc2[nH]cc(C3=CCN(C)CC3)c2c1
Ki: 19.4 nM

CN1CCC(c2c[nH]c3ccccc23)CC1
Ki: 513 nM

CN1CC=C(c2c[nH]c3ccc([S+](C)[O-])cc23)CC1 (stereo unspecified)
Ki: 105 nM

CN1CC=C(c2c[nH]c3ccc(C#N)cc23)CC1
Ki: 55 nM

CN1CC=C(c2c[nH]c3ccc(-c4ccccn4)cc23)CC1
Ki: 25.1 nM

CN1CC=C(c2c[nH]c3ccc(-c4cccnc4)cc23)CC1
Ki: 200 nM

CC(=O)Oc1ccc2[nH]cc(C3=CCN(C)CC3)c2c1
Ki: 81.3 nM

CN1CC=C(c2c[nH]c3ccc(O)cc23)CC1
Ki: 61.7 nM

CSc1ccc2[nH]cc(C3=CCN(C)CC3)c2c1
Ki: 23 nM

CCCN1CC=C(c2c[nH]c3ccc(C#N)cc23)CC1
Ki: 303 nM

CCCN1CC=C(c2c[nH]c3ccc(OC)cc23)CC1
Ki: 363 nM

CCCN1CC=C(c2c[nH]c3ccccc23)CC1
Ki: 556 nM

CN1CC=C(c2c[nH]c3ccc(C(N)=O)cc23)CC1
Ki: 5.3 nM

CN1CC=C(c2c[nH]c3ccc([Si](C)(C)C)cc23)CC1
Ki: 165 nM

CN1CC=C(c2c[nH]c3ccc(-c4cccs4)cc23)CC1
Ki: 19 nM

CN1CC=C(c2c[nH]c3ccc(Br)cc23)CC1
Ki: 11 nM

C1=C(c2c[nH]c3ccccc23)CCNC1
Ki: 189 nM

CN1CC=C(c2c[nH]c3ccc(-c4ccncc4)cc23)CC1
Ki: 74.1 nM

CCCN1CC=C(c2c[nH]c3ccc(NC(C)=O)cc23)CC1
Ki: 37 nM

CN1CC=C(c2c[nH]c3ccc(C(C)(C)O)cc23)CC1
Ki: 187 nM
